# Measured values: ChEMBL document CHEMBL1212812, “Multi-target spectral moment QSAR versus ANN for antiparasitic drugs against different parasite species” (Bioorg Med Chem, 2010)
# Columns and labels:
# Format in all cases: functional, organism-based
# Toxoplasma gondii = assay: Antimicrobial activity against Toxoplasma gondii
# [1] = test system: Trypanosoma brucei brucei; assay: Antimicrobial activity against Trypanosoma brucei brucei
# Cryptosporidium parvum = assay: Antimicrobial activity against Cryptosporidium parvum
# [2] = test system: Trypanosoma brucei rhodesiense; assay: Antimicrobial activity against Trypanosoma brucei rhodesiense
# Leishmania donovani = assay: Antimicrobial activity against Leishmania donovani
# Trichomonas vaginalis = assay: Antimicrobial activity against Trichomonas vaginalis
# Leishmania infantum = assay: Antimicrobial activity against Leishmania infantum
smiles,measurement,setting,value
c1ccc(Sc2cc3ccccc3[nH]2)cc1,IC50,Toxoplasma gondii; Toxoplasma gondii,1 µM
CCCN(CCC)c1c([N+](=O)[O-])cc(S(=O)(=O)Nc2cccc(C)c2)cc1[N+](=O)[O-],IC50,[1],2 µM
CC(C)(C)OC(=O)NC(=N)c1ccc(NC(=O)Cn2cnc([N+](=O)[O-])c2)cc1,IC50,[1],200 µM
COc1ccc(OC)c(NCc2ccc3nc(N)nc(N)c3n2)c1,IC50,Cryptosporidium parvum,1 µM
CC(C)(C)OC(=O)NC(=N)c1ccc(NC(=O)Cn2ccnc2[N+](=O)[O-])cc1,IC50,[1],119 µM
Nc1nc(N)c2c(n1)CCC(Cc1ccsc1)C2 (stereo not drawn),IC50,Cryptosporidium parvum,1 µM
CCCN(CCC)c1c([N+](=O)[O-])cc(S(=O)(=O)Nc2ccccn2)cc1[N+](=O)[O-],IC50,[1],9 µM
C1CN(N2CCNCC2)CCN1,IC50,[2],17 µM
Nc1nc(N)nc(N/N=C\c2cccs2)n1,IC50,[2],10 µM
same,IC50,[1],89 µM
O=C(NCCCN(CCO)CCNC(=O)OCc1ccccc1)OCc1ccccc1,IC50,[2],4 µM
N=C(N)c1ccc(NC(=O)Cn2cnc([N+](=O)[O-])c2)cc1,IC50,[2],80 µM
same,IC50,[1],200 µM
CN(CCCNC(=O)OCc1ccccc1)CCNC(=O)OCc1ccccc1,IC50,[2],21 µM
CCCN(CCC)c1c([N+](=O)[O-])cc(S(=O)(=O)NC(C)C)cc1[N+](=O)[O-],IC50,Leishmania donovani,100 µM
same,IC50,[1],4 µM
CCCN(CCC)c1c([N+](=O)[O-])cc(S(=O)(=O)N(C)C)cc1[N+](=O)[O-],IC50,Leishmania donovani,100 µM
same,IC50,[1],6 µM
[O-][S+](c1ccccc1)c1cc2ccccc2[nH]1 (stereo not drawn),IC50,Toxoplasma gondii; Toxoplasma gondii,50 µM
NCC12CC1CN(c1nc3c(cc1F)c(=O)c(C(=O)O)cn3C1CC1)C2 (stereo not drawn) [TROVAFLOXACIN10],IC50,Toxoplasma gondii; Toxoplasma gondii,12 µM
CSc1c(Sc2ccc([N+](=O)[O-])cc2)[nH]c2ccccc12,IC50,Toxoplasma gondii; Toxoplasma gondii,28 µM
COc1cc(Cc2csc3nc(N)nc(N)c23)c(Br)c(OC)c1OC,IC50,Cryptosporidium parvum,3 µM
CCCCCCN(CCCCCC)S(=O)(=O)c1cc([N+](=O)[O-])c(N(CCC)CCC)c([N+](=O)[O-])c1,IC50,Leishmania donovani,100 µM
same,IC50,[1],50 µM
N[C@@H]1[C@H]2CN(c3nc4c(cc3F)c(=O)c(C(=O)O)cn4-c3ccc(F)cc3F)C[C@@H]12 (stereo in doubt; form 2) [TROVAFLOXACIN],IC50,Toxoplasma gondii,2 µM
CCCC(C)NC(=O)c1ccc(N(C)Cc2cnc3nc(N)nc(N)c3n2)cc1 (stereo not drawn),IC50,Cryptosporidium parvum,1 µM
CCCN(CCC)c1ccc(S(=O)(=O)Nc2ccccc2)cc1[N+](=O)[O-],IC50,Leishmania donovani,43 µM
same,IC50,[1],20 µM
N[C@@H]1[C@H]2CN(c3cc4c(cc3F)c(=O)c(C(=O)O)cn4-c3ccc(F)cc3F)C[C@@H]12 [TROVAFLOXACIN6],IC50,Toxoplasma gondii; Toxoplasma gondii,3 µM
Nc1nc(N)c2nc(CN3c4ccccc4CC4C=CC=CC43)cnc2n1 (stereo not drawn),IC50,Cryptosporidium parvum,1 µM
c1ccc2cc(Sc3cc4ccccc4[nH]3)ccc2c1,IC50,Toxoplasma gondii; Toxoplasma gondii,4 µM
O=C(NCCCN1CCN(C(=O)OCc2ccccc2)C1)OCc1ccccc1,IC50,[2],1 µM
CNc1nc(NC)nc(N/N=C\c2ccc([N+](=O)[O-])o2)n1,IC50,[1],15 µM
CCCN(CCC)c1ccc(S(=O)(=O)N([N+](=O)[O-])[N+](=O)[O-])cc1,IC50,Leishmania donovani,65 µM
same,IC50,[1],12 µM
CCCN(CCC)c1c([N+](=O)[O-])cc(S(=O)(=O)Nc2ccc(Cl)c(Cl)c2)cc1[N+](=O)[O-],IC50,[1],8 µM
CCCN(CCC)c1c([N+](=O)[O-])cc(S(=O)(=O)NCC)cc1[N+](=O)[O-],IC50,Leishmania donovani,100 µM
same,IC50,[1],5 µM
NNc1nc(N)nc(N)n1,IC50,[1],200 µM
O=[N+]([O-])c1ccc(/C=N/O)o1 [NIFUROXIME],IC50,[2],1 µM
same,IC50,[1],1 µM
Nc1nc(N)nc(N/N=C\c2ccc([N+](=O)[O-])s2)n1,IC50,[1],1 µM
NC12CC1CN(c1nc3c(cc1F)c(=O)c(C(=O)O)cn3-c1ccc(F)cc1F)C2 (stereo not drawn) [TROVAFLOXACIN8],IC50,Toxoplasma gondii; Toxoplasma gondii,7 µM
C[C@@H]1[C@@H]2[C@@H](N)[C@@H]2CN1c1nc2c(cc1F)c(=O)c(C(=O)O)cn2-c1ccc(F)cc1F [TROVAFLOXACIN1],IC50,Toxoplasma gondii; Toxoplasma gondii,1 µM
CCCN(CCC)c1c([N+](=O)[O-])cc(S(=O)(=O)Nc2cccc(Cl)c2)cc1[N+](=O)[O-],IC50,Leishmania donovani,6 µM
same,IC50,[1],2 µM
C1CNC(N2CCN(N3CCN(C4=NCCN4)CC3)CC2)=N1,IC50,[2],28 µM
O=C(NCCCN(CCNC(=O)OCc1ccccc1)CCc1c[nH]c2ccccc12)OCc1ccccc1,IC50,[2],84 µM
CCCNS(=O)(=O)c1cc([N+](=O)[O-])c(N(CCC)CCC)c([N+](=O)[O-])c1,IC50,[1],9 µM
CNc1nc(NC)nc(NN)n1,IC50,[1],200 µM
NC(=O)c1nnn(Cc2cc(Cl)c(C(=O)C34CC5CC(CC(C5)C3)C4)c(Cl)c2)c1N,IC50,Toxoplasma gondii; Toxoplasma gondii,15 µM
NC[C@@H]1[C@H]2CN(c3nc4c(cc3F)c(=O)c(C(=O)O)cn4C3CC3)C[C@@H]12 [TROVAFLOXACIN9],IC50,Toxoplasma gondii; Toxoplasma gondii,12 µM
Cc1c(F)c(N2C[C@@H]3[C@@H](N)[C@@H]3C2)nc2c1c(=O)c(C(=O)O)cn2-c1ccc(F)cc1F [TROVAFLOXACIN3],IC50,Toxoplasma gondii; Toxoplasma gondii,1 µM
CN(CCN)CCCN,IC50,[2],69 µM
N=C(NCCCN(CCNC(=N)NC1CCCCC1)C(=N)NC1CCCCC1)NC1CCCCC1,IC50,[2],21 µM
O=[N+]([O-])c1cccc(Sc2cc3ccccc3[nH]2)c1,IC50,Toxoplasma gondii; Toxoplasma gondii,2 µM
CCCN(CCC)c1c([N+](=O)[O-])cc(S(=O)(=O)NC2CC2)cc1[N+](=O)[O-],IC50,[1],3 µM
N=C(N)NCCCNCCNC(=N)N,IC50,[2],20 µM
N=C(N)c1ccc(NC(=O)Cn2ccnc2[N+](=O)[O-])cc1,IC50,[2],6 µM
same,IC50,[1],200 µM
CCCN(CCC)c1c([N+](=O)[O-])cc(S(=O)(=O)N(CC)CC)cc1[N+](=O)[O-],IC50,[1],8 µM
Nc1nc(N)nc(N/N=C\c2ccco2)n1,IC50,[2],13 µM
same,IC50,[1],29 µM
O=C(CCN1CCCN(C(=O)OCc2ccccc2)C1)OCc1ccccc1,IC50,[2],3 µM
COc1ccc(Sc2cc3ccccc3[nH]2)cc1,IC50,Toxoplasma gondii; Toxoplasma gondii,17 µM
C[C@H]1[C@H](C)CC[C@]2(C(=O)O)CC[C@]3(C)C(=CC[C@@H]4[C@@]5(C)CC[C@H](O)C(C)(C)[C@@H]5CC[C@]43C)[C@H]12 [URSOLIC ACID],IC50,Toxoplasma gondii; Toxoplasma gondii,1 µM
CC(C)(C)OC(=O)NCCNC(=S)N1CCN(N2CCN(C(=S)NCCNC(=O)OC(C)(C)C)CC2)CC1,IC50,[2],14 µM
N[C@@H]1[C@H]2CN(c3nc4c(cc3F)c(=O)c(C(=O)O)cn4C3CC3)C[C@@H]12 [TROVAFLOXACIN4],IC50,Toxoplasma gondii; Toxoplasma gondii,2 µM
C[C@@H]1[C@@H]2[C@@H](CN)[C@@H]2CN1c1nc2c(cc1F)c(=O)c(C(=O)O)cn2-c1ccc(F)cc1F [TROVAFLOXACIN7],IC50,Toxoplasma gondii; Toxoplasma gondii,3 µM
CCCN(CCC)c1c([N+](=O)[O-])cc(S(=O)(=O)N2CCOCC2)cc1[N+](=O)[O-],IC50,Leishmania donovani,100 µM
same,IC50,[1],100 µM
C(CNCCNC1=NCCN1)CNC1=NCCN1,IC50,[2],11 µM
CCCN(CCC)c1c([N+](=O)[O-])cc(S(=O)(=O)Nc2cccc(OC)c2)cc1[N+](=O)[O-],IC50,Leishmania donovani,8 µM
same,IC50,[1],1 µM
CCN(CC)c1c([N+](=O)[O-])cc(S(=O)(=O)Nc2ccccc2)cc1[N+](=O)[O-],IC50,[1],3 µM
NCCCN(CCN)CCc1c[nH]c2ccccc12,IC50,[2],16 µM
CC(=O)OCCN(CCCNC(=O)OCc1ccccc1)CCNC(=O)OCc1ccccc1,IC50,[2],30 µM
N[C@@H]1[C@H]2CN(c3nc4c(cc3F)c(=O)c(C(=O)O)cn4-c3ccc(F)cc3F)C[C@@H]12 (stereo in doubt; form 1) [TROVAFLOXACIN],IC50,Toxoplasma gondii; Toxoplasma gondii,3 µM
CC(C)(C)CC(=O)N1CCN(N2CCN(C(=O)CC(C)(C)C)CC2)CC1,IC50,[2],5 µM
CCCN(CCC)c1c([N+](=O)[O-])cc(S(=O)(=O)NC)cc1[N+](=O)[O-],IC50,Leishmania donovani,100 µM
same,IC50,[1],5 µM
c1ccc2[nH]c(Sc3cccc4ccccc34)cc2c1,IC50,Toxoplasma gondii; Toxoplasma gondii,3 µM
NCCCNCCN,IC50,[2],49 µM
CCCN(CCC)c1c([N+](=O)[O-])cc(S(=O)(=O)N2CCCC2)cc1[N+](=O)[O-],IC50,[1],7 µM
NC[C@@H]1[C@H]2CN(c3nc4c(cc3F)c(=O)c(C(=O)O)cn4-c3ccc(F)cc3F)C[C@@H]12 [TROVAFLOXACIN11],IC50,Toxoplasma gondii; Toxoplasma gondii,9 µM
CN[C@H]1[C@@H]2CN(c3nc4c(cc3F)c(=O)c(C(=O)O)cn4-c3ccc(F)cc3F)C[C@@H]21 [TROVAFLOXACIN2],IC50,Toxoplasma gondii; Toxoplasma gondii,1 µM
O=[N+]([O-])c1ccc(Sc2cc3ccccc3[nH]2)cc1,IC50,Toxoplasma gondii; Toxoplasma gondii,14 µM
CN(CCCNC1=NCCN1)CCNC1=NCCN1,IC50,[2],2 µM
N/N=C/c1ccc([N+](=O)[O-])o1,IC50,[2],2 µM
same,IC50,[1],14 µM
Nc1ccc2nc(N3CCCCC3)sc2c1,IC50,Trichomonas vaginalis,214 µM
same,IC50,Leishmania infantum,10 µM
CC(=O)Nc1nc2ccc(N)cc2s1,IC50,Trichomonas vaginalis,200 µM
same,IC50,Leishmania infantum,121 µM
Nc1ccc2nc(Nc3ccccc3)sc2c1,IC50,Trichomonas vaginalis,208 µM
same,IC50,Leishmania infantum,63 µM
O=C(O)COCCOCCOc1cc(Cl)c(Cl)cc1Cl,IC50,Toxoplasma gondii; Toxoplasma gondii,1 µM
O=[N+]([O-])c1ccc2nc(Cl)sc2c1,IC50,Trichomonas vaginalis,2 µM
same,IC50,Leishmania infantum,48 µM
CN(C)c1nc2ccc([N+](=O)[O-])cc2s1,IC50,Trichomonas vaginalis,200 µM
same,IC50,Leishmania infantum,4 µM
CC1CS(=O)(=O)CCN1/N=C/c1ccc([N+](=O)[O-])o1 (stereo not drawn) [NIFURTIMOX],IC50,[2],2 µM
same,IC50,[1],6 µM
